Test results: patent publication US8455552B2, “Composition comprising S-allylmercapto-N-acetylcysteine (ASSNAC) for up-regulation of cellular glutathione level” (RAMOT et Tel Aviv University Ltd., priority 2007, dated 2013)
Where two headings read alike, the source gives them in different places.

Columns and labels:
TNFα = experiment: Gene expression by real-time PCR in EC: TNFα; assay type: cell-based, bovine; details: 3 hours; ASSNAC 0.2 mM, LPS 1 μg/ml
Source text: (§1) Total RNA was collected by EZ-RNA 2 kit, treated with DNAse, converted to cDNA and assayed in triplicate by real-time quantitative PCR using a ABI Prism 7700 Sequence Detector System (Applied Biosystem, Foster City, Calif., USA), with Absolute SYBR Green ROX mix and analyzed (SDS 2.1 software). Primers: human glutamate-cysteine-ligase modifier subunit (GCLM)—Forward: 5′[…] GTAAC3′ • and Reverse: 5′[…]3′; • Human heme oxygenase-1 (HO-1)—Forward: 5′[…]3′ • and Reverse: 5′[…]3′; • bovine TGF β2—Forward: […] • and Reverse: […]; • bovine TNF-alfa—Forward: […] • and Reverse: […]; • bovine ICAM-1—Forward: […] • and Reverse: […]; • bovine VCAM-1 Forward: […] • and Reverse: […]. • Results were normalized based on the quantity of human β-actin. Primers—Forward: 5′CCTGGCACCCAGCACAAT3′ and Reverse: 5′[…]3′.
(§2) The effect of ASSNAC on gene expression was further shown to be specific. Endothelial cells (EC) were treated by ASSNAC (0.2 mM) and LPS (1 μg/ml) for 3 hours following by mRNA extraction. The expression of the inflammatory genes TGF β2, ICAM-1, VCAM-1 and TNFα was then studied by Real-Time PCR. […] Only TGF β2 was induced by ASSNAC and to a lesser extent by LPS. TNFα expression was not induced by either ASSNAC or LPS (Table 2B).

VCAM-1 = experiment: Gene expression by real-time PCR in EC: VCAM-1; assay type: cell-based, bovine; details: 3 hours; ASSNAC 0.2 mM, LPS 1 μg/ml
Source text: as §1, §2

TGF β2 = experiment: Gene expression by real-time PCR in EC: TGF β2; assay type: cell-based, bovine; details: 3 hours; ASSNAC 0.2 mM, LPS 1 μg/ml
Source text: as §1, §2

ICAM-1 = experiment: Gene expression by real-time PCR in EC: ICAM-1; assay type: cell-based, bovine; details: 3 hours; ASSNAC 0.2 mM, LPS 1 μg/ml
Source text: as §1, §2

[1] = tested on: Bovine aortic endothelial cells (EC); experiment: Determination of total glutathione in endothelial cell cultures; assay type: cell-based; details: for glutathione cellular level as a function of time: FIG. 2A; for EC50: Bos taurus, Endothelial cell, concentration giving half-maximal increase of glutathione level, read-out: HALF-maximal (effect of increased glutathione level); for Maximal effect (increased glutathione level): concentration giving maximal increase of glutathione level
Protocol: (§3) Bovine aortic endothelial cells (EC) were prepared from bovine aorta, cultured in DMEM supplemented with 5% fetal calf serum, 5% calf serum, 2 mM L-glutamine, 100 U/ml penicillin, 100 μg/ml streptomycin, 12.5 U/ml nystatin and FGF-2 (3 ng/ml; added every 48 hours). Cultures were incubated at 37° C. in a humidified 10% CO2 atmosphere and passages 12-18 were used for experiments.
(§4) EC cultures were incubated in the presence or absence of PDTC, NAC, ASSNAC and their combinations. At the end of the incubation, cells were washed, collected into 10 mM HCl and further lyzed by samples freezing (in liquid nitrogen) and thawing, 3 times. Cell protein was precipitated by addition of SSA (10%) followed by centrifugation at 10,000 g and supernatant was collected for glutathione determination. Total glutathione (GSH+GSSG) was determined by the Anderson recycling method. Briefly, a reaction mixture containing phosphate buffer, EDTA, DTNB, NADPH and glutathione reductase was added to 96-wells plates already containing 20 μl of the experimental samples or a GSSG standard. The plates were shaken and OD at 405 nm was monitored at 10 sec intervals for 130 sec in a micro-plate reader. To determine the GSSG level in the total cellular glutathione, 2-vinylpyridine was used to conjugate GSH and remove it from the mixture followed by total glutathione determination as described above. For normalization, the protein pellet of each sample was lyzed in 0.2 N NaOH and quantified by the Lowry method.

heme oxygenase-1 (HO-1) = experiment: Gene expression by real-time PCR in EC: HO-1; assay type: cell-based, bovine; details: 3 hours; NAC 2 mM, ASSNAC 0.2 mM
Source text: as §1
(§5) Increased expression of the phase II detoxifying enzymes by cells is indicative of increased protection against oxidative stress. In order to determine the effect of NAC and ASSNAC on gene expression in EC, cells were treated with NAC (2 mM) and ASSNAC (0.2 mM) for 3 hours following by extraction of mRNA. The expression of GCLM and HO-1 was then studied by Real-Time PCR. […] Without being bound by any theory or mechanism of action, the GCLM activity and the cystein level are considered to be the rate limiting step of the glutathione synthesis. […]

[2] = tested on: glutamate-cysteine-ligase modifier subunit (GCLM); experiment: Gene expression by real-time PCR in EC: GCLM; assay type: cell-based, bovine; details: 3 hours; NAC 2 mM, ASSNAC 0.2 mM
Source text: as §1, §5

[3] = tested on: Bovine aortic endothelial cells (EC); details: from L. Horev-Azaria, Ph.D. Thesis, cited from earlier work
[4] = tested on: human neuroblastomas SH-SY5Y cell line; experiment: Protection of SH-SY5Y cultures against tBuOOH cytotoxicity (neutral red); details: then tBuOOH 1 mM 3 hours
Endothelial cells (EC) = experiment: Cytotoxicity test, BuOOH-stimulated cytotoxicity in endothelial cells (Neutral Red); assay type: cell-based, bovine; details: pre-incubation 18 hours; ASSNAC 0.2 mM vs NAC 1 mM and CSSA 0.2 mM; BuOOH 0.1 mM 3 hours
Protocol: as §3
Endothelial cells (EC; 10^4 cells/well) were grown till confluency in fibronectin-coated (5 μg/ml) 96 wells plates. Confluent EC were pre-incubated with ASSNAC 0.2 mM, CSSA 0.2 mM and NAC 1 mM for 18 hours in growth medium at 37° C. Subsequently, cells were washed with serum free DMEM medium and treated with […] ([…]) 0.1 mM for 3 hours. The number of viable cells was determined by Neutral Red (NR) staining method. After removing the culture medium, cells were incubated in NR working solution (1:100 in DCCM) for 2 hours at 37° C. […] Optical density of the dye was determined at 550 nm in an ELISA reader. The cell cytotoxicity was calculated by the following formula: Cytotoxicity (%)=[1−NR uptake in treated wells/NR uptake in control wells]×100 The control (untreated wells) were determined as 0% cytotoxity, the average of triplicates of each treatment is shown.

[5] = tested on: human neuroblastomas SH-SY5Y cell line; experiment: Cellular glutathione level in SH-SY5Y cultures; assay type: cell-based
Protocol: In order to establish the potential effect of ASSNAC on glutathione up-regulation in the nerve system as a mean to protect against neurodegenerative diseases the effect of ASSNAC on the human neuroblastomas SH-SY5Y cell line was studied. The cells were cultured in DMEM supplemented with 10% fetal calf serum, 2 mM L-glutamine, 100 U/ml penicillin, 100 μg/ml streptomycin, 12.5 U/ml nystatin. Cultures were incubated at 37° C. in a humidified 10% CO2 atmosphere.
as §4
The effect was observable at a concentration of 0.05 mM with a 2.4-fold maximal increase in glutathione at a concentration of 0.2 mM. The results are presented as mean±SD (n=2). A significant increase in glutathione was determined by ANOVA analysis (p<0.005; FIG. 8A).
Confluent SH-SY5Y cultures were exposed to ASSNAC (0.2 mM) for various time periods. The cultures were then washed and the cellular level of total glutathione was determined. […] The results are presented as mean±SD (n=2). A significant increase in glutathione was determined by ANOVA analysis (p<0.005; FIG. 8B).

[6] = 24 hours, increasing concentrations

| EC50 [1] | Compound | TNFα gene expression (TNFα) | VCAM-1 gene expression (VCAM-1) | TGF β2 gene expression (TGF β2) | ICAM-1 gene expression (ICAM-1) | Maximal Fold Increase (glutathione level) [1] | glutathione cellular level as a function of time ([1]; 0.2 mM) | Maximal effect (increased glutathione level) [1] | HO-1 gene expression (heme oxygenase-1 (HO-1)) | GCLM gene expression [2] | concentration of maximal effect on glutathione level [1, 6] | also measured |
| --- | --- | --- | --- | --- | --- | --- | --- | --- | --- | --- | --- | --- |
| 70 µM | C=CCSSC[C@H](N)C(=O)O [CSSA, S-allylmercaptocysteine] |  |  |  |  | 2 | significant increase in glutathione cellular level | 200 µM |  |  |  | speed of glutathione response ([1]; 0.2 mM, CSSA compared with ASSNAC): faster response; distribution of glutathione up-regulation between GSH and GSSG ([1]; 0.3 mM CSSA, FIG. 4): increase in GSH but not in GSSG level; GSSG level as share of the total cellular glutathione level ([1]; 0.3 mM CSSA, different time intervals): lower than 2% |
| 320 µM | CC(=O)N[C@@H](CS)C(=O)O [NAC, N-acetylcysteine] |  |  |  |  | 2.5 |  | 500 µM | 0.9 ± 0.1 (n = 3) | 1.0 ± 0.2 (n = 3) | 2 mM | time to maximal increase in glutathione level ([1]; NAC 2 mM): 6 h |
| 60 µM | C=CCSSC[C@H](NC(C)=O)C(=O)O [ASSNAC, S-allylmercapto-N-acetylcysteine] | 0.77 | 0.94 | 2.14 | 1.03 | 4 | significant increase in glutathione cellular level | 200 µM | 8.2 ± 4.2 (n = 4) | 2.3 ± 1.0 (n = 4) | 0.2 mM | cytotoxicity after ASSNAC pretreatment ([4]; ASSNAC 0.2 mM 24 hours): 25%; concentration at which decrease in cytotoxicity starts ([4]; pretreatment 24 hours): 25 µM; protection of cells from BuOOH oxidation stress (Endothelial cells (EC)): better protection; glutathione level after 24 hours, ASSNAC in comparison to CSSA ([1]; 0.2 mM, 24 hours): higher glutathione level; concentration at which up-regulation of glutathione level starts [1, 6]: 0.05 mM; signs of cytotoxic effect ([1]; up to a concentration of 2.0 mM, 24 hours): without any signs of cytotoxic effect; concentration at which increase in glutathione is observable ([5]; 24 hours): 0.05 mM; concentration of maximal increase in glutathione ([5]; 24 hours): 0.2 mM; maximal increase in glutathione ([5]; 24 hours, at 0.2 mM): 2.4 fold; time of maximal increase in glutathione ([5]; ASSNAC 0.2 mM): 24 h |

Further lines, the compound ahead of its results:

| Compound | EC50 [1] | TNFα gene expression (TNFα) | VCAM-1 gene expression (VCAM-1) | TGF β2 gene expression (TGF β2) | ICAM-1 gene expression (ICAM-1) | Maximal Fold Increase (glutathione level) [1] | glutathione cellular level as a function of time ([1]; 0.2 mM) | Maximal effect (increased glutathione level) [1] | HO-1 gene expression (heme oxygenase-1 (HO-1)) | GCLM gene expression [2] | concentration of maximal effect on glutathione level [1, 6] | also measured |
| --- | --- | --- | --- | --- | --- | --- | --- | --- | --- | --- | --- | --- |
| lipopolysacharide [LPS] |  | 0.71 | 104.7 | 5.7 | 19.52 |  |  |  |  |  |  |  |
| C=CCS[S+]([O-])CC=C (centres unmarked) [Allicin] |  |  |  |  |  |  |  |  |  |  |  | Maximal Fold Increase (glutathione level) [3]: 8; Maximal effect (increased glutathione level) [3]: 20 µM; EC50 ([3]; read-out: HALF-maximal (effect of increased glutathione level)): 7 µM |
| S=C(S)N1CCCC1 [PDTC, Pyrrolidine dithiocarbamate] |  |  |  |  |  |  |  |  |  |  |  | reduced glutathione (GSH) versus PDTC concentration ([1]; 24 hours, increasing concentrations, FIG. 6A): concentration dependent increase; concentration of GSH versus time ([1]; PDTC 0.1 mM, increasing time intervals, FIG. 6B): linear increase |
